Results taken from PubChem BioAssay (NCI).
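Assay format: 96-well plates, 48-hour exposure. At the TGI there is no net growth.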

Experiments:
Assay in all cases: growth of human tumour cells (NCI), 48 h
ACHN renal = test system: ACHN renal
MDA-MB-231 breast = test system: MDA-MB-231 breast
MDA-N = test system: MDA-N
MDA-MB-435 = test system: MDA-MB-435
NCI/ADR-RES ovarian = test system: NCI/ADR-RES ovarian
LOX IMVI melanoma = test system: LOX IMVI melanoma
CCRF-CEM leukemia = test system: CCRF-CEM leukemia
PC-3 prostate = test system: PC-3 prostate
DLD-1 colon = test system: DLD-1 colon
RXF-631 renal = test system: RXF-631 renal
OVCAR-4 ovarian = test system: OVCAR-4 ovarian
DMS 273 small cell lung = test system: DMS 273 small cell lung
SK-MEL-2 melanoma = test system: SK-MEL-2 melanoma
KM12 colon = test system: KM12 colon
SNB-78 CNS = test system: SNB-78 CNS
SNB-75 CNS = test system: SNB-75 CNS
DMS 114 small cell lung = test system: DMS 114 small cell lung
SF-539 CNS = test system: SF-539 CNS
RXF 393 renal = test system: RXF 393 renal
NCI-H23 lung = test system: NCI-H23 lung

Compound	TGI (ACHN renal) [µM]	TGI (MDA-MB-231 breast) [µM]	TGI (MDA-N) [µM]	TGI (MDA-MB-435) [µM]	TGI (NCI/ADR-RES ovarian) [µM]	TGI (LOX IMVI melanoma) [µM]	TGI (CCRF-CEM leukemia) [µM]	TGI (PC-3 prostate) [µM]	TGI (DLD-1 colon) [µM]	TGI (RXF-631 renal) [µM]	TGI (OVCAR-4 ovarian) [µM]	TGI (DMS 273 small cell lung) [µM]	TGI (SK-MEL-2 melanoma) [µM]	TGI (KM12 colon) [µM]	TGI (SNB-78 CNS) [µM]	TGI (SNB-75 CNS) [µM]	TGI (DMS 114 small cell lung) [µM]	TGI (SF-539 CNS) [µM]	TGI (RXF 393 renal) [µM]	TGI (NCI-H23 lung) [µM]
CCC(C(=O)c1ccc(OC)c(OC)c1)N(C(=O)C(F)(F)F)C(C)c1ccccc1 (configuration not stated)	> 100	> 100	> 100	> 100	> 100	> 100	> 100	> 100	–	–	–	–	–	–	–	–	–	–	–	–
O=[N+]([O-])c1ccc(-c2ccc(-c3csc(Nc4ccccn4)n3)o2)cc1	> 100	–	–	–	–	> 100	–	–	> 100	> 100	50	> 100	> 100	> 100	> 100	> 100	–	–	–	–
O=C1C(Cl)N(c2ccccc2[N+](=O)[O-])C1c1c[nH]c2ccccc12 (configuration not stated)	–	–	–	–	–	–	> 100	–	–	–	> 100	–	> 100	> 100	–	> 100	> 100	> 100	> 100	> 100
